Source: patent US5880122A, “3-Carboxamide derivatives of 5H-pyrrolo[2,1-c][1,4]-benzodiazepines” (American Home Products Corporation, priority 1997, dated 1999)
Counter-ions that a name gives are not always drawn.

Experiments:
[1] = tested on: Endogenous Arginine Vasopressin Antidiuretic (V2) Response; experiment: Antagonism of endogenous arginine vasopressin antidiuretic (V2) response in conscious rats (urine volume); format: in vivo, Sprague-Dawley rats; conditions: oral 10 mg/kg dose, urine collected for 4 hours, no water during test
Procedure: On the day of test, rats were placed individually into metabolic cages equipped with stainless steel screens (to separate the feces from the urine) and funnels for collection of urine. Vehicle or reference agent was given at various oral doses. During the test, rats were not provided with water or food. Urine was collected for four hours after dosing of the test compound. At the end of four hours, urine volume was measured. […] Determinations of Na^+, K^+ and Cl^- ion were carried out using ion specific electrodes in a Beckman SYNCHRON EL-ISE Electrolyte System analyzer.

[2] = target: T1, Human V2 Vasopressin Receptor (Homo sapiens, UniProt P30518); experiment: Binding to membranes of mouse fibroblast cell line (LV-2) transfected with the cDNA expressing the human V2 vasopressin receptor; conditions: LV-2 cell membranes, [3H] Arginine8 vasopressin 0.8 nM, 120 min
T1 construct: expressed in transfected cells; host or cells: mouse fibroblast cell line LV-2
T1 sequence (P30518 whole entry): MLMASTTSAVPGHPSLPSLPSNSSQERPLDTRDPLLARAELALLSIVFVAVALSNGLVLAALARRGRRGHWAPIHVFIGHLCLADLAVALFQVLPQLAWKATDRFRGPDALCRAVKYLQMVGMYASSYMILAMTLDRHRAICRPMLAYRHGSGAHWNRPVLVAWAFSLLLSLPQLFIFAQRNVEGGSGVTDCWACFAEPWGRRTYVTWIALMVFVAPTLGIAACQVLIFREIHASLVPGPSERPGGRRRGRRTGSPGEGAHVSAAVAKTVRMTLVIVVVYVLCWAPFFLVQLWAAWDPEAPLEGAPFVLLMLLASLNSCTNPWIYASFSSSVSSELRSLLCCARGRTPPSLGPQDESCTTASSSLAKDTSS
Procedure: Flasks of 175 ml capacity, containing attached cells grown to confluence, are cleared of culture medium by aspiration. The flasks containing the attached cells are rinsed with 2×5 ml of phosphate buffered saline (PBS) and the liquid aspirated off each time. Finally, 5 ml of an enzyme free dissociation Hank's based solution (Specialty Media, Inc., Lafayette, N.J.) is added and the flasks are left undisturbed for 2 min. The content of all flasks is poured into a centrifuge tube and the cells pelleted at 300×g for 15 min. […] The homogenate is centrifuged at 1500×g for 10 min to remove ghost membranes. […] Upon completion, the pellet is resuspended in a small volume of 50.0 mM Tris.HCl buffer, pH 7.4. The protein content is determined by the Lowry method and the receptor membranes are suspended in 50.0 mM Tris.HCl buffer containing 0.1 mM phenylmethylsulfonylfluoride (PMSF) and 0.2% bovine serum albumin (BSA) to give 2.5 mg receptor protein per ml of suspension.
Arginine^8, vasopressin (S.A. 75.0 Ci/mmole) at 0.8 nM and the reaction initiated by the addition of 80.0 ml of tissue membranes (200.0 mg tissue protein). […] Non specific binding is assessed in the presence of 1.0 mM of unlabeled ligand, added in 20 ml volume. […] The data are analyzed for IC50 values by the LUNDON-2 program for competition (LUNDON SOFTWARE, Ohio).

SMILES | Urine Volume (ml/4 hrs) 10 mg/kg rat p.o. [1] [ml/4 hrs] | IC50 [2] [nM]
O=C(O)CNC(=O)c1ccc2n1Cc1ccccc1N(C(=O)c1ccc(NC(=O)c3ccccc3-c3ccccc3)cc1Cl)C2 [Example 18] | 7.8 | 
CN(C)C1CCN(C(=O)c2ccc3n2Cc2ccccc2N(C(=O)c2ccc(NC(=O)c4ccccc4-c4ccccc4)cc2Cl)C3)CC1 [Example 12, Biphenyl-2-carboxylic acid {3-chloro-4-[3-(4-dimethylamino-piperidine-1-carbonyl)-5H,11H-1pyrrolo[2,1-c][1,4]benzodiazeline-10-carbonyl]-phenyl}-amide.] | 21.4 | 
Cc1ccc(F)cc1C(=O)Nc1ccc(C(=O)N2Cc3ccc(C(=O)[N-][N+](C)(C)C)n3Cc3ccccc32)c(Cl)c1 [Example 5, 2-[[10-[2-Chloro-4-[(5-fluoro-2-methylbenzoyl)amino]benzoyl]-10,11-dihydro-5H-pyrrolo[2,1-c][1,4]benzodiazepin-3-yl]hydroxymethylenel-1.1,1-trimetpyIpydraziniuminner salt] | 9.1 | 60
O=C(Nc1ccc(C(=O)N2Cc3ccc(C(=O)N4CCC(N5CCCCC5)CC4)n3Cc3ccccc32)c(Cl)c1)c1ccccc1-c1ccccc1 [Example 11, Biphenyl-2-carboxylic acid{3-chloro-4-[3-(4-piperidinyl-pilperidine-1-carbonyl)-5H,11H-pyrrolo[2,1-c][1,4]benzodiazepine-10-carbonyl]-phenyl}-amide.] | 20.5 | 
CN1CCN(C(=O)c2ccc3n2Cc2ccccc2N(C(=O)c2ccc(NC(=O)c4ccccc4-c4ccccc4)cc2Cl)C3)CC1 [Example 9] | 23.7 | 
O=C(Nc1ccc(C(=O)N2Cc3ccc(C(=O)O)n3Cc3ccccc32)c(Cl)c1)c1ccccc1-c1ccccc1 [Example 7] | 19.2 | 
Cc1ccc(F)cc1C(=O)Nc1ccc(C(=O)N2Cc3ccc(C(=O)N[N+](C)(C)C)n3Cc3ccccc32)c(Cl)c1 [Example 4] | 9.2 | 
COc1cc(NC(=O)c2ccccc2-c2ccccc2)ccc1C(=O)N1Cc2ccc(C(=O)NN(C)C)n2Cc2ccccc21 [Example 17] | 9.4 | 
COc1cc(NC(=O)c2ccccc2-c2ccccc2)ccc1C(=O)N1Cc2ccc(C(=O)N3CCN(C)CC3)n2Cc2ccccc21 [Example 16] | 24.3 | 
O=C(Nc1cc(C(=O)N2Cc3ccc(C(=O)C(Cl)(Cl)Cl)n3Cc3ccccc32)ccc1Cl)c1ccccc1-c1ccccc1 [Example 6, N-[5-[3-trichloromethylcarbnyl]-[5H-pyrrolo-[2,1-c]-[1,4]-benzdiazalin-10(11H)-ylcarbonyl]-2-chloronhenyl]-2-henylbenzamide] |  | 5.6
O=C(Nc1ccc(C(=O)N2Cc3ccc(C(=O)N4CCC(N5CCOCC5)CC4)n3Cc3ccccc32)c(Cl)c1)c1ccccc1-c1ccccc1 [Example 15, Biphenyl-2-carboxylic acid{3-chloro-4-[3-(4-morpholino-1piperidine-1-carbonyl)-5H,11H-pyrrolo[2,1-c][1,4]benzodiazepine-10-carbonyl]-phenyl}-amide.] | 19.3 | 
CN1CCN(NC(=O)c2ccc3n2Cc2ccccc2N(C(=O)c2ccc(NC(=O)c4ccccc4-c4ccccc4)cc2Cl)C3)CC1 [Example 13, Bilphenyl-2-carboxylic acid{3-chloro-4-[3-(4-methyl-piperazine-1 aminocarbonyl)-5H,11H-pyrrolo[2,1-c][1,4]benzodiazepine-10-carbonyl]-phenyl}-amide.] | 16.8 | 
CN(C)NC(=O)c1ccc2n1Cc1ccccc1N(C(=O)c1ccc(NC(=O)c3ccccc3-c3ccccc3)cc1Cl)C2 [Example 8] | 40.9 | 
